This note sets out measurements from publication PMC9933483, “Tail-Approach-Based Design and Synthesis of Coumarin-Monoterpenes as Carbonic Anhydrase Inhibitors and Anticancer Agents” (ACS Omega, 2023).

One data set deals with HT-29 cell line. Kind of data set: Cell cytotoxicity, MTT assay. The data set is classed as cell-based, human. The conditions noted are these: Homo sapiens, HT-29; MTT, 24 h. Background: Formazan colour is commonly taken as a measure of viable cells.
The target in a further data set is hCA IX (Homo sapiens, UniProt Q16790). Kind of data set: biochemical.
Another data set concerns MCF-7 cell line. As to the kind of experiment: Cell cytotoxicity, MTT assay. The data set is classed as cell-based, human.
A further data set concerns PC-3 cell line. Kind of data set: Cell cytotoxicity, MTT assay. The data set is classed as cell-based. The conditions noted are these: Homo sapiens, 24 h.
The next data set deals with HEK293T cell line. As to the kind of experiment: Cell cytotoxicity, MTT assay. The data set is classed as cell-based. The conditions noted are these: Homo sapiens, HEK-293T, 24 h, healthy cell line.

A word on the IC50: it is the concentration at which inhibition is half-maximal. Lower therefore signals higher potency. By melting point is commonly meant the temperature of the solid-liquid transition. The term Ki denotes the equilibrium dissociation constant of an inhibitor or competing ligand from its target. A higher Ki goes with weaker binding.

Regarding `C=CCc1ccc(OCCCOc2ccc3ccc(=O)oc3c2)c(OC)c1` [Compound 61, 7-(3-(4-Allyl-2-methoxyphenoxy)propoxy)-2H-chromen-2-one], the melting point lay within 70 to 71 °C. In addition, the IC50 in the data set with HT-29 cell line was greater than 80 µM.

Consider `Cc1ccc(C(C)C)c(OCc2cn(CCCCCCCCCCOc3ccc4ccc(=O)oc4c3)nn2)c1` [Compound 18, 7-((10-(4-((2-Isopropyl-5-methylphenoxy)methyl)-1H-1,2,3-triazol-1-yl)decyl)oxy)-2H-chromen-2-one], for which the melting point was in the range of 72 to 73 °C. In the data set with HT-29 cell line, this compound came in with an IC50 of 41.5 ± 14.2 µM. The Ki on hCA IX amounted to 0.268 µM.

The compound `CC1CCC(C(C)C)C(OCc2cn(CCCCOc3ccc4ccc(=O)oc4c3)nn2)C1` (centres unmarked) [Compound 38, 7-(4-(4-(((2-Isopropyl-5-methylcyclohexyl)oxy)methyl)-1H-1,2,3-triazol-1-yl)butoxy)-2H-chromen-2-one] registered a melting point of 75 to 76 °C. The same compound had an IC50 in the data set with HT-29 cell line of 37.2 ± 11.6 µM. Besides, at hCA IX, the affinity corresponds to a Ki of 0.3 µM.

Consider `C=CCc1ccc(OCc2cn(CCCCCCCCCCCCOc3ccc4ccc(=O)oc4c3)nn2)c(OC)c1` [Compound 35, 7-((12-(4-((4-Allyl-2-methoxyphenoxy)methyl)-1H-1,2,3-triazol-1-yl)dodecyl)oxy)-2H-chromen-2-one], for which the melting point was in the range of 72 to 74 °C. In the data set with HT-29 cell line, half-maximal inhibition (IC50) was put at 23.2 ± 6.94 µM. Besides, the Ki at hCA IX is 0.0299 µM.

In the case of `C=CCc1ccc(OCc2cn(CCCCCCCCCOc3ccc4ccc(=O)oc4c3)nn2)c(OC)c1` [Compound 33, 7-((9-(4-((4-Allyl-2-methoxyphenoxy)methyl)-1H-1,2,3-triazol-1-yl)nonyl)oxy)-2H-chromen-2-one], the melting point fell in the range of 83 to 84 °C. In the data set with HT-29 cell line, this compound came in with an IC50 of 31.3 ± 10.9 µM. This compound returned a Ki at hCA IX of 0.189 µM.

`Cc1ccc(C(C)C)cc1OCCOc1ccc2ccc(=O)oc2c1` [Compound 52, 7-(2-(5-Isopropyl-2-methylphenoxy)ethoxy)-2H-chromen-2-one] yielded a melting point of 172 to 173 °C. The compound further yielded an IC50 in the data set on HT-29 cell line of 74.2 ± 6.48 µM.

Compound `Cc1ccc(C(C)C)cc1OCCCCCCCCCCCCOc1ccc2ccc(=O)oc2c1` [Compound 59, 7-((12-(5-Isopropyl-2-methylphenoxy)dodecyl)oxy)-2H-chromen-2-one] yielded a melting point of 58 to 59 °C. In addition, the IC50 in the data set on HT-29 cell line is greater than 200 µM.

`C=CCc1ccc(OCCCCCCCCCOc2ccc3ccc(=O)oc3c2)c(OC)c1` [Compound 65, 7-((9-(4-Allyl-2-methoxyphenoxy)nonyl)oxy)-2H-chromen-2-one]: the melting point lay within 56 to 57 °C. The same compound showed an IC50 with HT-29 cell line of 39.4 ± 7.1 µM.

`C=CCc1ccc(OCc2cn(CCOc3ccc4ccc(=O)oc4c3)nn2)c(OC)c1` [Compound 28, 7-(2-(4-((4-Allyl-2-methoxyphenoxy)methyl)-1H-1,2,3-triazol-1-yl)ethoxy)-2H-chromen-2-one] came in with a melting point of 118 to 119 °C. Moreover, the 50% inhibitory concentration (IC50) with HT-29 cell line stood at 25.8 ± 8.4 µM. The compound further yielded a Ki at hCA IX of 0.0319 µM.

The compound `C=CCc1ccc(OCc2cn(CCCCCCCCCCOc3ccc4ccc(=O)oc4c3)nn2)c(OC)c1` [Compound 34, 7-((10-(4-((4-Allyl-2-methoxyphenoxy)methyl)-1H-1,2,3-triazol-1-yl)decyl)oxy)-2H-chromen-2-one] came in with a melting point of 48 to 49 °C. The compound also yielded an IC50 in the data set on HT-29 cell line of 25.7 ± 8.15 µM. For the same compound, affinity at hCA IX was put at a Ki of 0.0281 µM.

In turn, `Cc1ccc(C(C)C)cc1OCCCCOc1ccc2ccc(=O)oc2c1` [Compound 54, 7-(4-(5-Isopropyl-2-methylphenoxy)butoxy)-2H-chromen-2-one] showed a melting point of 74 to 75 °C. Also, half-maximal inhibition with HT-29 cell line (IC50) was put at 59.8 ± 6.73 µM.

`Cc1ccc(C(C)C)c(OCc2cn(CCCCCCCCCCCCOc3ccc4ccc(=O)oc4c3)nn2)c1` [Compound 19, 7-((12-(4-((2-Isopropyl-5-methylphenoxy)methyl)-1H-1,2,3-triazol-1-yl)dodecyl)oxy)-2H-chromen-2-one] registered a melting point of 68 to 69 °C. In the data set on HT-29 cell line, this compound gave an IC50 of 37.6 ± 11.7 µM. Besides, the affinity at hCA IX corresponds to a Ki of 0.0218 µM.

`CC1CCC(C(C)C)C(OCc2cn(CCOc3ccc4ccc(=O)oc4c3)nn2)C1` (centres unmarked) [Compound 36, 7-(2-(4-(((2-isopropyl-5-methylcyclohexyl)oxy)methyl)-1H-1,2,3-triazol-1-yl)ethoxy)-2H-chromen-2-one] had a melting point of 122 to 123 °C. In the data set on HT-29 cell line, it took 38.2 ± 12.1 µM to reach half-maximal inhibition (IC50).

Regarding `Cc1ccc(C(C)C)cc1OCCCCCCCCCCOc1ccc2ccc(=O)oc2c1` [Compound 58, 7-((10-(5-Isopropyl-2-methylphenoxy)decyl)oxy)-2H-chromen-2-one], the melting point is 50 to 51 °C. Also, the IC50 in the data set on HT-29 cell line is greater than 200 µM.

`Cc1ccc(C(C)C)cc1OCc1cn(CCCCCCCCCCOc2ccc3ccc(=O)oc3c2)nn1` [Compound 26, 7-((10-(4-((5-Isopropyl-2-methylphenoxy)methyl)-1H-1,2,3-triazol-1-yl)decyl)oxy)-2H-chromen-2-one] displayed a melting point of 73 to 74 °C. The IC50 in the data set with HT-29 cell line is 40.8 ± 10.2 µM. Further, the Ki on hCA IX turned out to be 0.258 µM.

On to `Cc1ccc(C(C)C)c(OCCOc2ccc3ccc(=O)oc3c2)c1` [Compound 44, 7-(2-(2-Isopropyl-5-methylphenoxy)ethoxy)-2H-chromen-2-one], for which the melting point lay in the range of 181 to 182 °C. The IC50 in the data set on HT-29 cell line came to 55.6 ± 4.91 µM.

In the case of `CC1CCC(C(C)C)C(OCCCCOc2ccc3ccc(=O)oc3c2)C1` (centres unmarked) [Compound 70, 7-(4-((2-Isopropyl-5-methylcyclohexyl)oxy)butoxy)-2H-chromen-2-one], the IC50 was found to be 14.7 ± 2.81 µM in the data set with HT-29 cell line; 4.53 ± 1.06 µM with MCF-7 cell line (24 h); 7.53 µM in the data set on MCF-7 cell line (Homo sapiens, MCF7, 24 h); 24.8 ± 5.35 µM with PC-3 cell line; 63.5 ± 11.4 µM in the data set on HEK293T cell line. At hCA IX, this compound displayed a Ki of 0.142 µM.

On to `CC1CCC(C(C)C)C(OCCCOc2ccc3ccc(=O)oc3c2)C1` (centres unmarked) [Compound 69, 7-(3-((2-Isopropyl-5-methylcyclohexyl)oxy)propoxy)-2H-chromen-2-one], for which the IC50 in the data set on HT-29 cell line was 12.1 ± 1.94 µM; with MCF-7 cell line (Homo sapiens, MCF7, 24 h), 5.86 ± 1.22 µM; in the data set with PC-3 cell line it was 41.4 ± 14.9 µM; with HEK293T cell line it was 50 ± 8.43 µM. Further, on hCA IX, the Ki was determined as 0.0341 µM.

On to `C=CCc1ccc(OCCCCCCCOc2ccc3ccc(=O)oc3c2)c(OC)c1` [Compound 64, 7-((7-(4-Allyl-2-methoxyphenoxy)heptyl)oxy)-2H-chromen-2-one], for which the melting point was 62 to 63 °C. The compound further showed an IC50 with HT-29 cell line greater than 80 µM.

In turn, `Cc1ccc(C(C)C)cc1OCc1cn(CCCCCCCCCCCCOc2ccc3ccc(=O)oc3c2)nn1` [Compound 27, 7-((12-(4-((5-Isopropyl-2-methylphenoxy)methyl)-1H-1,2,3-triazol-1-yl)dodecyl)oxy)-2H-chromen-2-one] came in with a melting point of 80 to 81 °C. This compound showed an IC50 in the data set on HT-29 cell line of 29.6 ± 6.47 µM. Affinity at hCA IX was put at a Ki of 0.0304 µM.

Consider `Cc1ccc(C(C)C)cc1OCc1cn(CCCCCCCCCOc2ccc3ccc(=O)oc3c2)nn1` [Compound 25, 7-((9-(4-((5-Isopropyl-2-methylphenoxy)methyl)-1H-1,2,3-triazol-1-yl)nonyl)oxy)-2H-chromen-2-one], for which the melting point was in the range of 69 to 70 °C. The compound also registered an IC50 in the data set with HT-29 cell line of 47.6 ± 13.8 µM. On hCA IX, affinity was put at a Ki of 0.0897 µM.
